Patent US9049864B2, “Pyridazinone herbicidal compounds” (Syngenta Limited, priority 2012, dated 2015)

Legend:
Test in all cases: Post-emergence herbicidal glasshouse test, percentage damage to the plant
Type in all cases: in vivo
[1] = test system: Alopecurus myosuroides (ALOMY)
Method: (§1) Seeds of a variety of test species are sown in standard soil in pots:—Solanum nigrum (SOLNI), Amaranthus retoflexus (AMARE), Setaria faberi (SETFA), Alopecurus myosuroides (ALOMY), Echinochloa crus-galli (ECHCG), Ipomoea hederacea (IPOHE). After 8 days cultivation (post-emergence) under controlled conditions in a glasshouse (at 24/16° C., day/night; 14 hours light; 65% humidity), the plants are sprayed with an aqueous spray solution derived from the formulation of the technical active ingredient in acetone/water (50:50) solution containing 0.5% Tween 20 (polyoxyethelyene sorbitan monolaurate, CAS RN 9005-64-5). Compounds are applied at 1000 g/ha. The test plants are then grown in a glasshouse under controlled conditions in a glasshouse (at 24/16° C., day/night; 14 hours light; 65% humidity) and watered twice daily. After 13 days, the test is evaluated for the percentage damage caused to the plant. The biological activities are shown in the following table on a five point scale (5=80-100%; 4=60-79%; 3=40-59%; 2=20-39%; 1=0-19%). A comparative experiment is conducted to compare the biological efficacy of a compound of the present invention with those of WO 2011/045271. The test is performed as outlined above using the following compounds. Three different application rates are employed (250 g/ha, 500 g/ha and 1000 g/ha).

[2] = test system: Amaranthus retoflexus (AMARE)
Method: as §1

[3] = test system: Echinochloa crus-galli (ECHCG)
Method: as §1

[4] = test system: Ipomoea hederacea (IPOHE)
Method: as §1

Setaria faberi (SETFA) = test system: Setaria faberi (SETFA)
Method: as §1

Solanum nigrum (SOLNI) = test system: Solanum nigrum (SOLNI)
Method: as §1

[5] = post-emergence, 1000 g/ha, evaluated after 13 days
[6] = comparative experiment, rate 250 g/ha
[7] = comparative experiment, rate 500 g/ha
[8] = comparative experiment, rate 1000 g/ha

Row | Compound | POST Application ALOMY, percentage damage (five point scale) [1, 5] | POST Application AMARE, percentage damage (five point scale) [2, 5] | POST Application ECHCG, percentage damage (five point scale) [3, 5] | POST Application IPOHE, percentage damage (five point scale) [4, 5] | POST Application SETFA, percentage damage (five point scale) (Setaria faberi (SETFA); [5]) | POST Application SOLNI, percentage damage (five point scale) (Solanum nigrum (SOLNI); [5]) | further results
1 | CN1N=C(S(C)(=O)=O)C(=O)C(n2c(Cl)c(Cl)c3ccccc32)C1=O (stereo not drawn) [Compound 2.004] | 1 (1=0-19%) | 2 (2=20-39%) | 1 (1=0-19%) | 2 (2=20-39%) | 1 (1=0-19%) | 2 (2=20-39%) | –
2 | COCCOCC1=NN(C)C(=O)C(n2c(Cl)c(Cl)c3ccccc32)C1=O (stereo not drawn) [Compound 2.015] | 1 (1=0-19%) | 2 (2=20-39%) | 1 (1=0-19%) | 5 (5=80-100%) | 1 (1=0-19%) | 4 (4=60-79%) | –
3 | CC1=NN(C)C(=O)C(n2nc(C(F)(F)F)cc2C)C1=O (stereo not drawn) [Compound A, reference compound] | – | – | – | – | – | – | POST Application ALOMY, percentage damage (five point scale) [1, 6]: 1 (1=0-19%); POST Application ALOMY, percentage damage (five point scale) [1, 7]: 1 (1=0-19%); POST Application ALOMY, percentage damage (five point scale) [1, 8]: 2 (2=20-39%); POST Application AMARE, percentage damage (five point scale) [2, 6]: 3 (3=40-59%); POST Application AMARE, percentage damage (five point scale) [2, 7]: 4 (4=60-79%); POST Application AMARE, percentage damage (five point scale) [2, 8]: 4 (4=60-79%); POST Application ECHCG, percentage damage (five point scale) [3, 6]: 1 (1=0-19%); POST Application ECHCG, percentage damage (five point scale) [3, 7]: 2 (2=20-39%); POST Application ECHCG, percentage damage (five point scale) [3, 8]: 3 (3=40-59%); POST Application IPOHE, percentage damage (five point scale) [4, 6]: 4 (4=60-79%); POST Application IPOHE, percentage damage (five point scale) [4, 7]: 5 (5=80-100%); POST Application IPOHE, percentage damage (five point scale) [4, 8]: 5 (5=80-100%); POST Application SETFA, percentage damage (five point scale) (Setaria faberi (SETFA); [6]): 1 (1=0-19%); POST Application SETFA, percentage damage (five point scale) (Setaria faberi (SETFA); [7]): 1 (1=0-19%); POST Application SETFA, percentage damage (five point scale) (Setaria faberi (SETFA); [8]): 2 (2=20-39%); POST Application SOLNI, percentage damage (five point scale) (Solanum nigrum (SOLNI); [6]): 3 (3=40-59%); POST Application SOLNI, percentage damage (five point scale) (Solanum nigrum (SOLNI); [7]): 4 (4=60-79%); POST Application SOLNI, percentage damage (five point scale) (Solanum nigrum (SOLNI); [8]): 5 (5=80-100%)
4 | CC(C)COC1=NN(C)C(=O)C(n2c(Cl)c(Cl)c3ccccc32)C1=O (stereo not drawn) [Compound 2.019] | 1 (1=0-19%) | 4 (4=60-79%) | 1 (1=0-19%) | 2 (2=20-39%) | 1 (1=0-19%) | 4 (4=60-79%) | –
5 | CN1N=C(OCC(F)F)C(=O)C(n2c(Cl)c(Cl)c3ccccc32)C1=O (stereo not drawn) [Compound 2.020] | 1 (1=0-19%) | 4 (4=60-79%) | 1 (1=0-19%) | 3 (3=40-59%) | 1 (1=0-19%) | 4 (4=60-79%) | –
6 | Cc1nn(C)c(=O)c(-n2c(Cl)c(Cl)c3ccccc32)c1OC(=O)C(C)(C)C [Compound 3.008] | 2 (2=20-39%) | 5 (5=80-100%) | 3 (3=40-59%) | 5 (5=80-100%) | 1 (1=0-19%) | 5 (5=80-100%) | –
7 | CC(C)N1N=CC(=O)C(n2cc(Cl)c3ccccc32)C1=O (stereo not drawn) [Compound 1.010] | 1 (1=0-19%) | 1 (1=0-19%) | 1 (1=0-19%) | 1 (1=0-19%) | 1 (1=0-19%) | 3 (3=40-59%) | –
8 | CN1N=C(OCC(F)(F)F)C(=O)C(n2c(Cl)c(Cl)c3ccccc32)C1=O (stereo not drawn) [Compound 2.024] | 1 (1=0-19%) | 2 (2=20-39%) | 1 (1=0-19%) | 1 (1=0-19%) | 1 (1=0-19%) | 2 (2=20-39%) | –
9 | CN1N=CC(=O)C(n2c(Cl)c(Cl)c3ccccc32)C1=O (stereo not drawn) [Compound 1.013] | 1 (1=0-19%) | 5 (5=80-100%) | 1 (1=0-19%) | 5 (5=80-100%) | 2 (2=20-39%) | 5 (5=80-100%) | –
